Assay results: ChEMBL document CHEMBL1151679, “A new cytotoxic sterol methoxymethyl ether from a deep water marine sponge Scleritoderma sp. cf. paccardi” (J Nat Prod, 1996)
Values after ≈ are worked out from the molar mass of the structure shown.

Test system: P388
Experiment: Cytotoxicity against mouse P388 cells
Type: functional, cell-based

COCO[C@H]1CC[C@@]2(C)[C@@H](CC=C3[C@@H]2CC[C@]2(C)[C@@H]([C@H](C)CC[C@@H](C)C(C)C)CC[C@@H]32)C1
IC50: 2.3 µg/mL (≈ 5.17 µM)
